Assay results: PMC12198407, “Preclinical and first-in-human of purinostat mesylate, a novel selective HDAC I/IIb inhibitor, in relapsed/refractory multiple myeloma and lymphoma” (Signal Transduction and Targeted Therapy, 2025)
Entries after “also recorded” stand apart in the source; their conditions may differ.

Test: Phase I trial NCT05526313, safety and tolerability (adverse events, CTCAE 5.0)

With `CN(Cc1nc2c(N3CCOCC3)nc(-c3ccc(N)cc3)nc2n1C)c1ncc(C(=O)NO)cn1.CS(=O)(=O)O` [PM, 2-(((2-(4-Aminophenyl)-9-methyl-6-(4-morpholinyl)-9H-purine-8-yl)methyl)methylamino)-N-hydroxy-5-pyrimidine-carboxamide Mesylate] the “dose-limiting toxicity (DLT)” value (1.2–15 mg/m^2) was “no dose-limiting toxicities observed; also recorded: no dose-limiting toxicity (DLT) events occurred; also recorded: no arrhythmias or DLT were observed”, the “grade 5 events” value (29 treated patients) was “no grade 5 events reported” and the “patients with grade 3–4 TEAEs” value (29 treated patients) was 25 (86.2%) n (%). The COVID-19 ([…]) was 1(3.4) n (%), the “Investigations (SOC)” value ([…]) was 29(100.0) n (%) and the QRS axis abnormalities ([…]) was 1(3.4) n (%). For the same compound, the “ST segment abnormalities on ECG” value ([…]) was 5(17.2) n (%), the “ST-T segment changes on ECG” value ([…]) was 9(31.0) n (%) and the “T wave abnormalities on ECG” value ([…]) was 9(31.0) n (%). For the same compound, the abdominal discomfort ([…]) was 1(3.4) n (%), the abdominal distension ([…]) was 4(13.8) n (%) and the abdominal pain ([…]) was 2(6.9) n (%). For the same compound, the abnormal liver function ([…]) was 1(3.4) n (%), the alopecia ([…]) was 1(3.4) n (%) and the anemia ([…]) was 20(69.0) n (%). For the same compound, the angular cheilitis ([…]) was 1(3.4) n (%), the appendicitis ([…]) was 1(3.4) n (%) and the arrhythmia ([…]) was 1(3.4) n (%). The arthralgia ([…]) was 3(10.3) n (%), the atrial tachycardia ([…]) was 1(3.4) n (%) and the backache ([…]) was 1(3.4) n (%). For the same compound, the bacteremia ([…]) was 1(3.4) n (%), the belching ([…]) was 1(3.4) n (%) and the bleeding gums ([…]) was 1(3.4) n (%). The “blood and lymphatic system diseases (SOC)” value ([…]) was 20(69.0) n (%), the chill ([…]) was 1(3.4) n (%) and the conjunctival bleeding ([…]) was 1(3.4) n (%). The constipation ([…]) was 1(3.4) n (%), the cough ([…]) was 1(3.4) n (%) and the decreased blood fibrinogen ([…]) was 1(3.4) n (%). The decreased lymphocyte count ([…]) was 16(55.2) n (%), the decreased monocyte count ([…]) was 2(6.9) n (%) and the decreased neutrophil count ([…]) was 25(86.2) n (%). The decreased platelet count ([…]) was 24(82.8) n (%), the “decreased white blood cell count” value ([…]) was 24(82.8) n (%) and the diarrhea ([…]) was 4(13.8) n (%). The dizziness ([…]) was 13(44.8) n (%), the duodenogastric reflux ([…]) was 1(3.4) n (%) and the dyspepsia ([…]) was 1(3.4) n (%). For the same compound, the dyspnea ([…]) was 1(3.4) n (%), the “elevated blood creatine phosphokinase” value ([…]) was 1(3.4) n (%) and the “elevated blood unconjugated bilirubin” value ([…]) was 1(3.4) n (%). For the same compound, the epigastric pain ([…]) was 1(3.4) n (%), the epistaxis ([…]) was 2(6.9) n (%) and the extraventricular contraction ([…]) was 1(3.4) n (%). For the same compound, the “eye organ disease (SOC)” value ([…]) was 2(6.9) n (%), the eyelid edema ([…]) was 1(3.4) n (%) and the facial pain ([…]) was 1(3.4) n (%). For the same compound, the fatigue ([…]) was 3(10.3) n (%), the fever ([…]) was 2(6.9) n (%) and the fungal skin infection ([…]) was 1(3.4) n (%). For the same compound, the gastritis ([…]) was 1(3.4) n (%), the gastroesophageal reflux disease ([…]) was 2(6.9) n (%) and the gastrointestinal hemorrhage ([…]) was 1(3.4) n (%). For the same compound, the “gastrointestinal system diseases (SOC)” value ([…]) was 21(72.4) n (%), the head discomfort ([…]) was 1(3.4) n (%) and the headache ([…]) was 14(48.3) n (%). The “heart organ diseases (SOC)” value ([…]) was 13(44.8) n (%), the “heat and cold intolerance” value ([…]) was 1(3.4) n (%) and the hematochezia ([…]) was 1(3.4) n (%). For the same compound, the hematuria ([…]) was 4(13.8) n (%), the hepatic failure ([…]) was 2(6.9) n (%) and the “hepato-biliary diseases (SOC)” value ([…]) was 3(10.3) n (%). The herpes zoster ([…]) was 4(13.8) n (%), the herpesvirus infection ([…]) was 1(3.4) n (%) and the “high voltage on ECG” value ([…]) was 3(10.3) n (%). The hypercalcemia ([…]) was 1(3.4) n (%), the hyperglycemia ([…]) was 7(24.1) n (%) and the hyperlipoidemia ([…]) was 4(13.8) n (%). For the same compound, the hypermagnesemia ([…]) was 3(10.3) n (%), the hypertension ([…]) was 2(6.9) n (%) and the hypertriglyceridemia ([…]) was 2(6.9) n (%). The hyperuricemia ([…]) was 4(13.8) n (%), the hypoalbuminemia ([…]) was 1(3.4) n (%) and the hypocalcemia ([…]) was 7(24.1) n (%). For the same compound, the hypochloremia ([…]) was 4(13.8) n (%), the hypokalemia ([…]) was 11(37.9) n (%) and the hypomagnesemia ([…]) was 4(13.8) n (%). For the same compound, the hyponatremia ([…]) was 10(34.5) n (%), the hypophosphatemia ([…]) was 13(44.8) n (%) and the hypotension ([…]) was 2(6.9) n (%). For the same compound, the increased blood creatinine ([…]) was 2(6.9) n (%), the increased lymphocyte count ([…]) was 1(3.4) n (%) and the increased monocyte count ([…]) was 13(44.8) n (%). For the same compound, the increased serum bilirubin ([…]) was 4(13.8) n (%), the “increased total bile acid” value ([…]) was 1(3.4) n (%) and the increased troponin ([…]) was 1(3.4) n (%). The “increased urobilinogen in the urine” value ([…]) was 3(10.3) n (%), the “increased γ-glutamyl transferase” value ([…]) was 2(6.9) n (%) and the “infections and infestations diseases (SOC)” value ([…]) was 13(44.8) n (%). The infectious pneumonia ([…]) was 1(3.4) n (%), the insomnia ([…]) was 1(3.4) n (%) and the “kidney and urinary system diseases (SOC)” value ([…]) was 6(20.7) n (%). The left ventricular dysfunction ([…]) was 1(3.4) n (%), the limb pain ([…]) was 2(6.9) n (%) and the loss of appetite ([…]) was 2(6.9) n (%). For the same compound, the “mental disorder (SOC)” value ([…]) was 1(3.4) n (%), the “metabolic and nutritional diseases (SOC)” value ([…]) was 23(79.3) n (%) and the muscle weakness ([…]) was 1(3.4) n (%). The musculoskeletal discomfort ([…]) was 1(3.4) n (%), the nasal congestion ([…]) was 1(3.4) n (%) and the nausea ([…]) was 15(51.7) n (%). The oral hypoesthesia ([…]) was 2(6.9) n (%), the oral mucositis ([…]) was 1(3.4) n (%) and the palpitation ([…]) was 4(13.8) n (%). For the same compound, the parageusia ([…]) was 1(3.4) n (%), the pericardial effusion ([…]) was 1(3.4) n (%) and the periodontitis ([…]) was 1(3.4) n (%). The peripheral edema ([…]) was 1(3.4) n (%), the petechia ([…]) was 2(6.9) n (%) and the proteinuria ([…]) was 1(3.4) n (%). The pruritus ([…]) was 3(10.3) n (%), the pulmonary inflammation ([…]) was 1(3.4) n (%) and the rash ([…]) was 3(10.3) n (%). For the same compound, the reduced intake ([…]) was 10(34.5) n (%), the renal failure ([…]) was 1(3.4) n (%) and the respiratory tract infection ([…]) was 1(3.4) n (%). The “right bundle branch block” value ([…]) was 1(3.4) n (%), the sinus bradycardia ([…]) was 1(3.4) n (%) and the sinus tachycardia ([…]) was 7(24.1) n (%). The “skin and subcutaneous tissue diseases (SOC)” value ([…]) was 10(34.5) n (%), the skin pain ([…]) was 1(3.4) n (%) and the skin xerosis ([…]) was 2(6.9) n (%). The soft tissue infection ([…]) was 1(3.4) n (%), the supraventricular extraventricular contraction ([…]) was 2(6.9) n (%) and the “systemic diseases and various reactions at the administration site (SOC)” value ([…]) was 19(65.5) n (%). For the same compound, the tachypnea ([…]) was 3(10.3) n (%), the tongue ulcer ([…]) was 1(3.4) n (%) and the “upper respiratory tract bacterial infection” value ([…]) was 1(3.4) n (%). The “upper respiratory tract infection” value ([…]) was 3(10.3) n (%), the urinary tract infection ([…]) was 3(10.3) n (%) and the urine protein detection ([…]) was 4(13.8) n (%). The “various musculoskeletal and connective tissue diseases (SOC)” value ([…]) was 7(24.1) n (%), the “various neurological diseases (SOC)” value ([…]) was 19(65.5) n (%) and the “vascular and lymphatic diseases (SOC)” value ([…]) was 3(10.3) n (%). For the same compound, the ventricular hypokinesia ([…]) was 1(3.4) n (%), the vesicular rash ([…]) was 1(3.4) n (%) and the vomit ([…]) was 15(51.7) n (%). For the same compound, the weakness ([…]) was 14(48.3) n (%), the “ST segment abnormalities on ECG” value ([…], second line of this term) was 1(3.4) n (%) and the hypermagnesemia ([…], second line of this term) was 2(6.9) n (%). For the same compound, the “Grade ≥3 lymphopenia” value (all doses, N = 29) was 31.0% and the “Grade ≥3 thrombocytopenia” value (all doses, N = 29) was 75.9%.
